Source: publication PMC3904413, “Allosteric modulation of GABAA receptors by extracellular ATP” (Molecular Brain, 2014)

System: T1, GABAARs (native, cultured hippocampal neurons)
T1 construct: gene Gabra1
Conditions: GABA 100 μM by pressure ejection, -60 mV; allosteric potentiator; error ± 0.3 in Figure 1 legend

EC50: 2.1 ± 0.2 mM
Structure (SMILES): Nc1ncnc2c1ncn2[C@@H]1O[C@H](COP(=O)(O)OP(=O)(O)OP(=O)(O)O)[C@@H](O)[C@H]1O [ATP]
